Experimental data from ChEMBL document CHEMBL3885861, “Open TG-GATES”.

Organism: Rattus norvegicus
Assay: Open TG-GATES - Regimen: Daily Repeat
Format: toxicity, organism-based, Sprague-Dawley
Design: regimen Daily Repeat, gender Male, age 6 weeks
Details: in vivo, po, route gavage; for APTT / Bas / Eos / Fbg / Hb / Ht / Lym / MCH / MCHC / MCV / Mono / Neu / PT / Plat / RBC / Ret / WBC: tissue Blood; for KIDNEY_L / KIDNEY_R / KIDNEY_TOTAL: tissue Kidney; for LIVER: tissue Liver; for A/G / ALP / ALT / AST / BUN / CRE / Ca / Cl / DBIL / GLC / IP / K / LDH / Na / PL / RALB / TBIL / TC / TG / TP / gamma-GTP: tissue Plasma
[1] = 120 mg/kg, 72 h, dose level Middle, time 3 day
[2] = 120 mg/kg, […], dose level Middle, time 7 day
[3] = 120 mg/kg, […], dose level Middle, time 14 day
[4] = 120 mg/kg, […], dose level Middle, time 28 day
[5] = 400 mg/kg, 72 h, dose level High, time 3 day
[6] = 400 mg/kg, […], dose level High, time 7 day
[7] = 400 mg/kg, […], dose level High, time 14 day
[8] = 400 mg/kg, […], dose level High, time 28 day

## Cc1cccc(C)c1OCC(C)N (centres undefined) [MEXILETINE]
[1]
  TERMINAL_BW: 236.3 g
  APTT: 21.8 s
  Bas: 0%
  Eos: 0.8%
  Fbg: 325.2 mg/dL
  Hb: 12.9 g/dL
  Ht: 40.1%
  Lym: 74%
  MCH: 19.7 pg
  MCHC: 32.3%
  MCV: 61.1 fL
  Mono: 2.6%
  Neu: 21.6%
  PT: 15.3 s
  Plat: 115.5 x10_4/uL
  RBC: 656.6 x10_4/ul
  Ret: 6.1%
  WBC: 96.8 x10_2/uL
  KIDNEY_L: 1 g
  KIDNEY_R: 1 g
  KIDNEY_TOTAL: 2 g
  LIVER: 11.5 g
  A/G: 1.3
  ALP: 1686.2 IU/L
  ALT: 48.6 IU/L
  AST: 73.4 IU/L
  BUN: 16.6 mg/dL
  CRE: 0.1 mg/dL
  Ca: 10.8 mg/dL
  Cl: 106.2 meq/L
  DBIL: 0 mg/dL
  GLC: 197 mg/dL
  IP: 8 mg/dL
  K: 4.3 meq/L
  LDH: 181.2 IU/L
  Na: 141.6 meq/L
  PL: 168 mg/dL
  RALB: 3.2 g/dL
  TBIL: 0.002 mg/dL
  TC: 91.2 mg/dL
  TG: 150.2 mg/dL
  TP: 5.7 g/dL
  gamma-GTP: 1.8 IU/L
[2]
  TERMINAL_BW: 275.9 g
  APTT: 22.2 s
  Bas: 0%
  Eos: 0.8%
  Fbg: 321.2 mg/dL
  Hb: 13.1 g/dL
  Ht: 40.4%
  Lym: 77.8%
  MCH: 20.5 pg
  MCHC: 32.4%
  MCV: 63.3 fL
  Mono: 2.4%
  Neu: 18.4%
  PT: 15.6 s
  Plat: 105.3 x10_4/uL
  RBC: 638 x10_4/ul
  Ret: 6.2%
  WBC: 107.1 x10_2/uL
  KIDNEY_L: 1.1 g
  KIDNEY_R: 1.1 g
  KIDNEY_TOTAL: 2.2 g
  LIVER: 13.2 g
  A/G: 1.2
  ALP: 1567.6 IU/L
  ALT: 45 IU/L
  AST: 69.8 IU/L
  BUN: 18.4 mg/dL
  CRE: 0.1 mg/dL
  Ca: 11 mg/dL
  Cl: 104.8 meq/L
  DBIL: 0 mg/dL
  GLC: 188.6 mg/dL
  IP: 7.8 mg/dL
  K: 4.2 meq/L
  LDH: 145.6 IU/L
  Na: 142 meq/L
  PL: 163.2 mg/dL
  RALB: 3 g/dL
  TBIL: 0.004 mg/dL
  TC: 81.2 mg/dL
  TG: 148 mg/dL
  TP: 5.6 g/dL
  gamma-GTP: 1.6 IU/L
[3]
  TERMINAL_BW: 328.1 g
  APTT: 21.8 s
  Bas: 0%
  Eos: 0.4%
  Fbg: 310.2 mg/dL
  Hb: 13.1 g/dL
  Ht: 40.6%
  Lym: 83.2%
  MCH: 20.1 pg
  MCHC: 32.2%
  MCV: 62.6 fL
  Mono: 2%
  Neu: 13.6%
  PT: 15.9 s
  Plat: 113.4 x10_4/uL
  RBC: 648.8 x10_4/ul
  Ret: 7.3%
  WBC: 96 x10_2/uL
  KIDNEY_L: 1.3 g
  KIDNEY_R: 1.3 g
  KIDNEY_TOTAL: 2.6 g
  LIVER: 14.8 g
  A/G: 1.1
  ALP: 1443.2 IU/L
  ALT: 43.2 IU/L
  AST: 74.6 IU/L
  BUN: 19.4 mg/dL
  CRE: 0.2 mg/dL
  Ca: 10.5 mg/dL
  Cl: 107.2 meq/L
  DBIL: 0 mg/dL
  GLC: 190.6 mg/dL
  IP: 6.5 mg/dL
  K: 4.4 meq/L
  LDH: 157.8 IU/L
  Na: 140.6 meq/L
  PL: 160 mg/dL
  RALB: 2.9 g/dL
  TBIL: 0.002 mg/dL
  TC: 80.8 mg/dL
  TG: 155.6 mg/dL
  TP: 5.7 g/dL
  gamma-GTP: 2.2 IU/L
[4]
  TERMINAL_BW: 389.9 g
  APTT: 23.8 s
  Bas: 0%
  Eos: 1.8%
  Fbg: 328.2 mg/dL
  Hb: 15.1 g/dL
  Ht: 44%
  Lym: 74%
  MCH: 19.4 pg
  MCHC: 34.4%
  MCV: 56.6 fL
  Mono: 2.4%
  Neu: 21.2%
  PT: 15.6 s
  Plat: 94.2 x10_4/uL
  RBC: 777 x10_4/ul
  Ret: 3.1%
  WBC: 93 x10_2/uL
  KIDNEY_L: 1.5 g
  KIDNEY_R: 1.5 g
  KIDNEY_TOTAL: 2.9 g
  LIVER: 16.8 g
  A/G: 1
  ALP: 977 IU/L
  ALT: 42.4 IU/L
  AST: 68.8 IU/L
  BUN: 16.2 mg/dL
  CRE: 0.2 mg/dL
  Ca: 10.4 mg/dL
  Cl: 105.6 meq/L
  DBIL: 0 mg/dL
  GLC: 201.6 mg/dL
  IP: 6 mg/dL
  K: 3.7 meq/L
  LDH: 158.2 IU/L
  Na: 142.8 meq/L
  PL: 157.8 mg/dL
  RALB: 3.1 g/dL
  TBIL: 0.012 mg/dL
  TC: 80.2 mg/dL
  TG: 145.2 mg/dL
  TP: 6.1 g/dL
  gamma-GTP: 2 IU/L
[5]
  TERMINAL_BW: 229.5 g
  APTT: 21.1 s
  Bas: 0%
  Eos: 1%
  Fbg: 337.4 mg/dL
  Hb: 13.2 g/dL
  Ht: 40.8%
  Lym: 76.6%
  MCH: 19.9 pg
  MCHC: 32.5%
  MCV: 61.3 fL
  Mono: 2.2%
  Neu: 19.6%
  PT: 15.8 s
  Plat: 111.4 x10_4/uL
  RBC: 666.8 x10_4/ul
  Ret: 5.4%
  WBC: 88.4 x10_2/uL
  KIDNEY_L: 1 g
  KIDNEY_R: 1.1 g
  KIDNEY_TOTAL: 2.1 g
  LIVER: 10.3 g
  A/G: 1.3
  ALP: 1772.8 IU/L
  ALT: 54 IU/L
  AST: 75.6 IU/L
  BUN: 13.8 mg/dL
  CRE: 0.1 mg/dL
  Ca: 10.5 mg/dL
  Cl: 106.2 meq/L
  DBIL: 0 mg/dL
  GLC: 191.4 mg/dL
  IP: 7.4 mg/dL
  K: 4 meq/L
  LDH: 170 IU/L
  Na: 142.2 meq/L
  PL: 155.6 mg/dL
  RALB: 3.2 g/dL
  TBIL: 0.008 mg/dL
  TC: 86 mg/dL
  TG: 87.4 mg/dL
  TP: 5.6 g/dL
  gamma-GTP: 1.4 IU/L
[6]
  TERMINAL_BW: 249.3 g
  APTT: 22.2 s
  Bas: 0%
  Eos: 0.4%
  Fbg: 343.8 mg/dL
  Hb: 13.8 g/dL
  Ht: 41.9%
  Lym: 79%
  MCH: 20.1 pg
  MCHC: 32.9%
  MCV: 61 fL
  Mono: 2%
  Neu: 17%
  PT: 16.4 s
  Plat: 111.8 x10_4/uL
  RBC: 687.2 x10_4/ul
  Ret: 4%
  WBC: 107.9 x10_2/uL
  KIDNEY_L: 1.1 g
  KIDNEY_R: 1.1 g
  KIDNEY_TOTAL: 2.3 g
  LIVER: 11.5 g
  A/G: 1.2
  ALP: 1505.6 IU/L
  ALT: 50.2 IU/L
  AST: 76 IU/L
  BUN: 18 mg/dL
  CRE: 0.2 mg/dL
  Ca: 10.9 mg/dL
  Cl: 104.6 meq/L
  DBIL: 0 mg/dL
  GLC: 180.6 mg/dL
  IP: 7.2 mg/dL
  K: 4.2 meq/L
  LDH: 130.4 IU/L
  Na: 143 meq/L
  PL: 168.4 mg/dL
  RALB: 3.1 g/dL
  TBIL: 0.004 mg/dL
  TC: 85.6 mg/dL
  TG: 138.2 mg/dL
  TP: 5.7 g/dL
  gamma-GTP: 1.2 IU/L
[7]
  TERMINAL_BW: 299.7 g
  APTT: 21.7 s
  Bas: 0%
  Eos: 1%
  Fbg: 292.2 mg/dL
  Hb: 12.9 g/dL
  Ht: 39.9%
  Lym: 75.8%
  MCH: 20.5 pg
  MCHC: 32.4%
  MCV: 63.2 fL
  Mono: 2.4%
  Neu: 20.6%
  PT: 16.5 s
  Plat: 108.6 x10_4/uL
  RBC: 632.4 x10_4/ul
  Ret: 7.4%
  WBC: 62.3 x10_2/uL
  KIDNEY_L: 1.3 g
  KIDNEY_R: 1.3 g
  KIDNEY_TOTAL: 2.6 g
  LIVER: 13.9 g
  A/G: 1.1
  ALP: 1631.8 IU/L
  ALT: 70.2 IU/L
  AST: 97.6 IU/L
  BUN: 19.4 mg/dL
  CRE: 0.2 mg/dL
  Ca: 10.4 mg/dL
  Cl: 105.8 meq/L
  DBIL: 0 mg/dL
  GLC: 185 mg/dL
  IP: 7.1 mg/dL
  K: 4.4 meq/L
  LDH: 185.4 IU/L
  Na: 141 meq/L
  PL: 182.6 mg/dL
  RALB: 3.1 g/dL
  TBIL: 0 mg/dL
  TC: 88 mg/dL
  TG: 186.8 mg/dL
  TP: 5.9 g/dL
  gamma-GTP: 2.2 IU/L
[8]
  TERMINAL_BW: 372.4 g
  APTT: 23.2 s
  Bas: 0%
  Eos: 1%
  Fbg: 334.4 mg/dL
  Hb: 15.5 g/dL
  Ht: 45.2%
  Lym: 76%
  MCH: 19.1 pg
  MCHC: 34.3%
  MCV: 55.6 fL
  Mono: 2.4%
  Neu: 19.4%
  PT: 16.1 s
  Plat: 101.2 x10_4/uL
  RBC: 813.6 x10_4/ul
  Ret: 2.4%
  WBC: 104.8 x10_2/uL
  KIDNEY_L: 1.5 g
  KIDNEY_R: 1.5 g
  KIDNEY_TOTAL: 3 g
  LIVER: 16.7 g
  A/G: 1.1
  ALP: 1359 IU/L
  ALT: 43.6 IU/L
  AST: 70 IU/L
  BUN: 18.2 mg/dL
  CRE: 0.2 mg/dL
  Ca: 10.5 mg/dL
  Cl: 104.2 meq/L
  DBIL: 0 mg/dL
  GLC: 183.8 mg/dL
  IP: 6.6 mg/dL
  K: 4.3 meq/L
  LDH: 144.6 IU/L
  Na: 142.2 meq/L
  PL: 180.4 mg/dL
  RALB: 3.1 g/dL
  TBIL: 0.01 mg/dL
  TC: 91.4 mg/dL
  TG: 162.6 mg/dL
  TP: 6.1 g/dL
  gamma-GTP: 1.8 IU/L
